Marks after values point to notes of the source that are not given here.
Assays:
[1] = system: scopolamine-induced amnesia of rats; assay: Effects on scopolamine-induced amnesia, passive avoidance task (oral administration); assay type: in vivo, rat; settings: 60 min before trial, scopolamine hydrobromide 2 mg/kg i.p., latency 24 h after shock, male Sprague Dawley rats; for inhibition in vivo at 0.01 mg/kg / inhibition in vivo at 1 mg/kg: Rattus norvegicus, po, read-out: Inhibitory rate (%)
Source text: Male rats of the Strague Dawley strain at 8 weeks of age (260±2 g body weight) were used for evaluation through passive avoidance task. The apparatus of passive avoidance task comprises illuminated and dark chambers which are separated from each other by a wall with a door. Floors are constituted by grids made of stainless steel; only the grid in the dark chamber is furnished with wiring for electrification.
Effected on the first and second days of testing was preparative training; each rat was placed in the illuminated chamber and left for 3 minutes to habituate to the apparatus. On the third day of testing, the rats were individually placed in the illuminated chamber and after entering the dark chamber, the door was closed and the floor grid was electrified to deliver electric shock (100 V, 0.4 mA, a period of 0.8 sec). In order to induce amnesia, scopolamine hydrobromide (2 mg/kg) was intraperitoneally injected 20 minutes before the electric shock was delivered. Retention in memory on the electric shock was tested 24 hours later; more specifically, retention in passive avoidance was measured in terms of a time interval (latency) from placement of each rat in the illuminated chamber to its entry into the dark chamber. The latency over 300 seconds was recorded as 300 seconds. Respective test compounds were suspended in an aqueous solution of 1% carboxymethyl cellulose and orally administered at a dose of 0.01 or 1 mg/kg 60 minutes before the trial.
Antiamnesic effects of the test compounds were evaluated by inhibitory rate (%) which is calculated by the following formula:
[formula] wherein T stands for latency and SC, administration of scopolamine hydrobromide. Experimental results are shown in the following table in which, as to each of the test compounds, only the dose showing higher inhibitory rate was indicated.

melting point | Molecule | inhibition in vivo at 0.01 mg/kg ([1]; dose 0.01 mg/kg p.o.) [%] | further results
– | COc1cc2c(cc1OC)C(=O)C(CC1CCN(Cc3ccccc3)CC1)C2 (racemic) [compound C, (R,S)-1-benzyl-4-(5,6-dimethoxy-1-indanon-2-yl)-methylpiperidine, reference compound] | 12.5 | inhibition in vivo at 1 mg/kg ([1]; dose 1 mg/kg p.o.): 24.7%
– | O=C1N=C2SC=CN2C1(Cc1ccc(F)cc1)Cc1ccc(F)cc1 [compound 1, 5,5-bis(4-fluorobenzyl)imidazo[2,1-b]thiazol-6(5H)-one] | – | inhibition in vivo at 1 mg/kg ([1]; dose 1 mg/kg p.o.): 56.1%
> 300 °C | O=C1N=C2SC=CN2C1(Cc1ccccc1)Cc1ccccc1 [compound 2, 5,5-dibenzylimidazo[2,1-b]thiazol-6(5H)-one] | 86.9 | –
> 300 °C | O=C1N=C2N=CC=CN2C1(Cc1ccccc1)Cc1ccccc1 [compound 3, 3,3-dibenzylimidazo[1,2-a]pyrimidin-2(3H)-one] | 60.3 | –
> 300 °C | Cc1ccc(CC2(Cc3ccc(C)cc3)C(=O)N=C3SC=CN32)cc1 [compound 4, 5,5-bis(4-methylbenzyl)imidazo[2,1-b]thiazol-6(5H)-one] | 49.8 | –
264 to 267 °C | N#Cc1ccc(CC2(Cc3ccc(C#N)cc3)C(=O)N=C3SC=CN32)cc1 [compound 5, 5,5-bis(4-cyanobenzyl)imidazo[2,1-b]thiazol-6(5H)-one] | 49.6 | –
> 300 °C | CC1=CN2C(=NC(=O)C2(Cc2ccccc2)Cc2ccccc2)S1 [compound 6, 5,5-dibenzyl-2-methylimidazo[2,1-b]thiazol-6(5H)-one] | 66.6 | –
286 °C (dec.) | O=C1N=C2SC=CN2C1(Cc1cccs1)Cc1cccs1 [compound 7, 5,5-bis(2-thienylmethyl)imidazo[2,1-b]thiazol-6(5H)-one] | – | –
192 °C (dec.) | O=C1N=C2N=CC=CN2C1(Cc1cccs1)Cc1cccs1 [compound 8, 3,3-bis(2-thienylmethyl)imidazo[1,2-a]pyrimidin-2(3H)-one] | 58.9 | –
233 to 236 °C | O=C1N=C2SCCN2C1(Cc1ccccc1)Cc1ccccc1 [compound 9, 5,5-dibenzyl-2,3-dihydroimidazo[2,1-b]thiazol-6(5H)-one] | 86.6 | –
– | Oc1nc2ccccn2c1Cc1ccc2ccccc2c1 [compound 10, 2-hydroxy-3-(2-naphtylmethyl)imidazo[1,2-a]pyridin] | – | Inhibitory rate (%) ([1]; dose 0.01 mg/kg p.o.): 40.8* %
– | O=C1N=C2C=CC=CN2C12Cc1cc3ccccc3cc1C2 [compound 11, spiro[imidazo[1,2-a]pyridin-2(3H)-one-3,2′-benzo[f]-indan]] | – | Inhibitory rate (%) ([1]; dose 0.01 mg/kg p.o.): 80.4** %
218 to 220 °C | O=C1N=C2CCCCN2C1(C1CCCCC1)C1CCCCC1 [compound 12, 3,3-dicyclohexyl-5,6,7,8-tetrahydroimidazo[1,2-a]-pyridin-2(3H)-one] | 53.5 | –
35 to 40 °C | CCCCC1(CCCC)C(=O)N=C2CCCCN21 [compound 13, 3,3-dibutyl-5,6,7,8-tetrahydroimidazo[1,2-a]pyridin-2 (3H)-one] | – | inhibition in vivo at 1 mg/kg ([1]; dose 1 mg/kg p.o.): 49.6%
182 °C (dec.) | O=C1N=C2C=CC=CN2C1Cc1ccccc1 (centres unmarked) [compound 14, 3-benzylimidazo[1,2-a]pyridin-2(3H)-one] | 53.6 | –
– | CCCC1(CCC)C(=O)N=C2CCCCN21 [compound 15, 3,3-dipropyl-5,6,7,8-tetrahydroimidazo[1,2-a]pyridin-2(3H)-one] | – | inhibition in vivo at 1 mg/kg ([1]; dose 1 mg/kg p.o.): 61.5%
– | CN1C=NC(Cc2ccccc2)(Cc2ccccc2)C1=O [compound 16, 4,4-dibenzyl-1-methyl-5-oxo-4,5-dihydroimidazol] | 73.3 | –
149.5 °C (dec.) | CC=CCC1(CC=CC)C(=O)N=C2N=CC=CN21 (centres unmarked) [compound 17, 3,3-di(2-butenyl)imidazo[1,2-a]pyrimidin-2(3H)-one] | 54.4 | –

melting point | Molecule | inhibition in vivo at 0.01 mg/kg ([1]; dose 0.01 mg/kg p.o.) [%] | further results
– | O=C1N=C2C=CC=CN2C12Cc1cccc(F)c1C2 (centres unmarked) [compound 18, spiro[imidazo[1,2-a]pyridin-2(3H)-one-3,2′-(4′-fluoroindan)]] | – | Inhibitory rate (%) ([1]; dose 0.01 mg/kg p.o.): 90.3** %
– | COc1ccc2c(c1)CC1(C2)C(=O)N=C2C=CC=CN21 (centres unmarked) [compound 19, spiro[imidazo[1,2-a]pyridin-2(3H)-one-3,2′-(5′-methoxyindan)]] | – | Inhibitory rate (%) ([1]; dose 1 mg/kg p.o.): 83.4** %
– | O=C1N=C2C=CC=CN2C12Cc1ccc(I)cc1C2 (centres unmarked) [compound 20, spiro[imidazo[1,2-a]pyridin-2(3H)-one-3,2′-(5′-iodoindan)]] | – | Inhibitory rate (%) ([1]; dose 1 mg/kg p.o.): 72.4** %
– | N#Cc1cccc2c1CC1(C2)C(=O)N=C2C=CC=CN21 (centres unmarked) [compound 21, spiro[imidazo[1,2-a]pyridin-2(3H)-one-3,2′-(4′-cyanoindan)]] | – | Inhibitory rate (%) ([1]; dose 1 mg/kg p.o.): 52.4* %
– | O=C1N=C2c3ccccc3C=CN2C12Cc1ccccc1C2 [compound 22, spiro[imidazo[2,1-a]isoquinolin-2(3H)-one-3,2′-indan]] | – | Inhibitory rate (%) ([1]; dose 0.01 mg/kg p.o.): 76.5** %
– | O=C1N=C2C=CC=CN2C12Cc1cc3nsnc3cc1C2 [compound 23, spiro[imidazo[1,2-a]pyridin-2(3H)-one-3,2′-((1,2,5-thiadiazo)[4,5-c]indan)]] | – | Inhibitory rate (%) ([1]; dose 0.01 mg/kg p.o.): 88.2** %
– | O=C1N=C2N=CC=CN2C12Cc1ccccc1C2 [compound 25, spiro[imidazo[1,2-a]pyrimidin-2(3H)-one-3,2′-indan]] | – | Inhibitory rate (%) ([1]; dose 1 mg/kg p.o.): 78.3* %
– | O=C1N=C2C=CC=CN2C12Cc1ccc(C(F)(F)F)cc1C2 (centres unmarked) [compound 26, spiro[imidazo[1,2-a]pyridin-2(3H)-one-3,2′-(5′-trifluoromethylindan)]] | – | Inhibitory rate (%) ([1]; dose 1 mg/kg p.o.): 74.3** %
– | O=C1N=C2C=CC=CN2C12Cc1ccc3ccccc3c1C2 (centres unmarked) [compound 27, spiro[imidazo[1,2-a]pyridin-2(3H)-one-3,2′-benzo[e]-indan]] | – | Inhibitory rate (%) ([1]; dose 1 mg/kg p.o.): 64.9** %
– | O=C1N=C2c3ccccc3C=CN2C12CC=CC2 [compound 28, spiro[imidazo[2,1-a]isoquinolin-2 (3H)-one-3,1′-(3′-cyclopentene)]] | – | Inhibitory rate (%) ([1]; dose 0.01 mg/kg p.o.): 88.0** %
– | O=C1N=C2C(OCc3ccccc3)=CC=CN2C12CC=CC2 [compound 29, spiro[8-benzyloxyimidazo[1,2-a]pyridin-2(3H)-one-3,1′-(3′-cyclopentene)]] | – | Inhibitory rate (%) ([1]; dose 1 mg/kg p.o.): 87.7** %
– | O=C1N=C2C3=C(C=CN2C12CCCC2)CCCC3 [compound 30, spiro[7,8,9,10-tetrahydroimidazo[2,1-a]isoquinolin-2(3H)-one-3,1′-cyclopentane]] | – | Inhibitory rate (%) ([1]; dose 1 mg/kg p.o.): 89.5** %
– | O=C1N=C2c3ccccc3C=CN2C12CCCC2 [compound 31, spiro[imidazo[2,1-a]isoquinolin-2(3H)-one-3,1′-cyclopentane]] | – | Inhibitory rate (%) ([1]; dose 0.01 mg/kg p.o.): 56.7* %
– | O=C1N=C2CCCCN2C12Cc1cc3ccccc3cc1C2 [compound 32, spiro[5,6,7,8-tetrahydroimidazo[1,2-a]pyridin-2(3H)-one-3,2′-benzo[f]indan]] | – | Inhibitory rate (%) ([1]; dose 0.01 mg/kg p.o.): 61.4* %
– | O=C1N=C2CCCCN2C12Cc1ccccc1C2 [compound 33, spiro[5,6,7,8-tetrahydroimidazo[1,2-a]pyridin-2(3H)-one-3,2′-indan]] | – | Inhibitory rate (%) ([1]; dose 0.01 mg/kg p.o.): 66.1** %
– | O=C1N(c2ccccc2)c2ccccc2C1(Cc1ccncc1)Cc1ccncc1 [compound A, 3,3-bis(4-pyridylmethyl)-1-phenylindolin-2-one, reference compound] | 8.8 | inhibition in vivo at 1 mg/kg ([1]; dose 1 mg/kg p.o.): 20.9%
– | Nc1c2c(nc3ccccc13)CCCC2 [compound B, 9-amino-1,2,3,4-tetrahydro-acridine, reference compound] | 24.1 | inhibition in vivo at 1 mg/kg ([1]; dose 1 mg/kg p.o.): 54.9%
– | spiro[imidazo[2,1-a]isoquinolin-2(3H)-one-3,21-(1,2,5-thiadiazo)[4,5-c]indan)] [compound 24] | – | Inhibitory rate (%) ([1]; dose 0.01 mg/kg p.o.): 97.1** %
